Blank lines part the entries; values can stand above or below the compound they belong to. The source made the active and inactive calls. The rule behind the calls is not given here.
Experiments:
[1] = test system: HEK-293T; test: Toxicity in HEK293T cells at 0.5 to 5 uM after 6 to 22 hrs by CellTiter-Glo assay; assay type: cell-based; conditions: human
[2] = target: T1, Casein kinase I isoform delta (Rattus norvegicus, UniProt Q06486); test: Inhibition of full-length rat GST-tagged CK1delta using alpha-casein as substrate after 30 mins in presence of [gamma-32P]-ATP by Cherenkov counting method
T1 sequence (Q06486 whole entry, the tested form may be a part, canonical isoform): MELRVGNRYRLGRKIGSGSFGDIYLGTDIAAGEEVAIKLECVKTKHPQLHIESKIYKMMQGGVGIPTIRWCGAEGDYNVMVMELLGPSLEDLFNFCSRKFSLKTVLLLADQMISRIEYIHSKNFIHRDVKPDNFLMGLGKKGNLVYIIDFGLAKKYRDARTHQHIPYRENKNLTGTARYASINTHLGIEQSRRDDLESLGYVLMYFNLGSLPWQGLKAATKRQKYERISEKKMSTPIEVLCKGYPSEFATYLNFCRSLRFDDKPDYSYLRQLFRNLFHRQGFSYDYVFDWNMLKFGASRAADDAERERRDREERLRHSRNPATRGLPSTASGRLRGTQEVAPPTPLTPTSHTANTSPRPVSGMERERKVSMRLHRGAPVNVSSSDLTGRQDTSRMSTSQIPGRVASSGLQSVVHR

[3] = target: Casein kinase I isoform delta (Rattus norvegicus) (UniProt Q06486); test: Inhibition of rat recombinant CK1delta kinase domain assessed as residual activity at 10 uM using alpha-casein as substrate after 30 mins in presence of [gamma-32P]-ATP by Cherenkov counting method
Casein kinase I isoform delta (Rattus norvegicus), sequence (Q06486 whole entry, looked up, the tested form may be a part, canonical isoform): as the sequence (Q06486 whole entry, the tested form may be a part, canonical isoform) above

[4] = target: Casein kinase I isoform delta (Rattus norvegicus, UniProt Q06486, M82F); test: Inhibition of rat GST-tagged CK1delta M82F mutant at 10 uM using alpha-casein as substrate after 30 mins in presence of [gamma-32P]-ATP by Cherenkov counting method
Casein kinase I isoform delta (Rattus norvegicus, UniProt Q06486, M82F), sequence (Q06486 whole entry M82F, canonical isoform): as the sequence (Q06486 whole entry, the tested form may be a part, canonical isoform) above, with M82F counted along it

[5] = target: Tyrosine-protein kinase ZAP-70 (Homo sapiens) (UniProt P43403); test: Inhibition of recombinant human full length GST/His-tagged ZAP70 expressed in Sf9 cells assessed as residual activity at 1 uM after 60 mins in presence of [gamma-33P]-ATP by scintillation counting method
Tyrosine-protein kinase ZAP-70 (Homo sapiens), sequence (P43403 whole entry, the tested form may be a part, canonical isoform): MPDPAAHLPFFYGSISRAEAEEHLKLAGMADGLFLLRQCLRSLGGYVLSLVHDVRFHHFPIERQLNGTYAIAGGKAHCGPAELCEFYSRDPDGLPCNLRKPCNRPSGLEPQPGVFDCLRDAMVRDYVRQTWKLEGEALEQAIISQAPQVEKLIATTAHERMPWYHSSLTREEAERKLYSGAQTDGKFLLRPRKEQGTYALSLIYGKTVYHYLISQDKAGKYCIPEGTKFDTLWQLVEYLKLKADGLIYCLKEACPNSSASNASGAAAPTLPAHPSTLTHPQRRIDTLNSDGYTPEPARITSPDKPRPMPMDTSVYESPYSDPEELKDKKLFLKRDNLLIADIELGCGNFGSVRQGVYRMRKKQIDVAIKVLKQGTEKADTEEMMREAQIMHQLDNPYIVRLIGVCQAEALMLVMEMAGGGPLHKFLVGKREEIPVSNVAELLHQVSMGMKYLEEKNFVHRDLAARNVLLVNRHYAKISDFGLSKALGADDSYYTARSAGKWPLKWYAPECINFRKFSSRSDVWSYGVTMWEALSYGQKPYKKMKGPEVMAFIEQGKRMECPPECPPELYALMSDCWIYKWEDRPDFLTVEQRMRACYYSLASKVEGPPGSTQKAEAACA

[6] = test system: CAPAN-1; test: Antiproliferative activity against human Capan1 cells after 48 hrs by MTT assay; assay type: functional, cell-based; conditions: CAPAN-1, 48 h
[7] = test system: SW-620; test: Antiproliferative activity against human SW620 cells after 48 hrs by MTT assay; assay type: functional, cell-based; conditions: SW-620, 48 h
[8] = target: T2, Protein-serine O-palmitoleoyltransferase porcupine (Homo sapiens) (UniProt Q9H237); test: Inhibition of porcupine in HEK293T cells transfected with Wnt3A-expressing vector assessed as suppression of Wnt/beta-catenin signaling at 5 uM after 22 hrs by Super-top flash reporter gene assay relative to control; assay type: cell-based
T2 sequence (whole entry): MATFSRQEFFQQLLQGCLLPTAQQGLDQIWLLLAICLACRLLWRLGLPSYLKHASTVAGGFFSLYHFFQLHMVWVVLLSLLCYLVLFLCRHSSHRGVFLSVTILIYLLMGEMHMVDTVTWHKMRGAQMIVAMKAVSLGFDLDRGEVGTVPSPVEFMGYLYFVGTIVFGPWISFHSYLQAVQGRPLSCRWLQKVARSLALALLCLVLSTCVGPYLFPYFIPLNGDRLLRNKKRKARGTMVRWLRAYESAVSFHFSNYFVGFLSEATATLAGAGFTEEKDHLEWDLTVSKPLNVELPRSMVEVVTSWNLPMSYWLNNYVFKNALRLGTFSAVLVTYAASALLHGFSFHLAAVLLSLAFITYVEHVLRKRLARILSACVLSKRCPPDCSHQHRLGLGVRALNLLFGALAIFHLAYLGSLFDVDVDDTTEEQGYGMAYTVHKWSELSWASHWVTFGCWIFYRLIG

[9] = target: Serine/threonine-protein kinase tousled-like 2 (Homo sapiens) (UniProt Q86UE8); test: Inhibition of recombinant human TLK2 at 5 nM to 10 uM using alpha-casein as substrate after 30 mins in presence of [gamma-32P]-ATP by Cherenkov counting method
Serine/threonine-protein kinase tousled-like 2 (Homo sapiens), sequence (Q86UE8 whole entry, looked up): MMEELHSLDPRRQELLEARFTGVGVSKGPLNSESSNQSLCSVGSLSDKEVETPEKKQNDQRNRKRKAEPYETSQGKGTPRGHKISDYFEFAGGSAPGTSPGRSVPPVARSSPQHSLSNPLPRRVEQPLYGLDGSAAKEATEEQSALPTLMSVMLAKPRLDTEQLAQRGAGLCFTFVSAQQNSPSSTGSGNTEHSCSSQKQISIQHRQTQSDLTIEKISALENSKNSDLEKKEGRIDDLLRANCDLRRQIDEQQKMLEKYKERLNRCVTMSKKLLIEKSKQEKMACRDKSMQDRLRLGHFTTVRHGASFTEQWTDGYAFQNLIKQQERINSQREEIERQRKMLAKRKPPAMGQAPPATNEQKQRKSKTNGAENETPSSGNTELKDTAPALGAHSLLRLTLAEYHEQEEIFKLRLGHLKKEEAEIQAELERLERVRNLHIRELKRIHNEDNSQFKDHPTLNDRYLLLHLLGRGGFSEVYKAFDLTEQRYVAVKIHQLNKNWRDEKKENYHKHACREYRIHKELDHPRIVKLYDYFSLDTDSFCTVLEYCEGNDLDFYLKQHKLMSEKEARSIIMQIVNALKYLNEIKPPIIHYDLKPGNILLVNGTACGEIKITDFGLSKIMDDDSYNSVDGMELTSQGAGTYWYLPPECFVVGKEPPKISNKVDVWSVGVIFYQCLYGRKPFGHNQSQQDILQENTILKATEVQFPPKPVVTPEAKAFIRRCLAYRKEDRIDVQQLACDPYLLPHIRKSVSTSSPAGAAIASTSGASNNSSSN

[10] = organism: Homo sapiens; test: Inhibition of Wnt/beta-catenin signaling in HEK293T cells after 22 hrs in presence of Wnt3A-conditioned medium by Super-top flash reporter gene assay; assay type: cell-based
[11] = target: Casein kinase I isoform epsilon (Homo sapiens, UniProt P49674); test: Inhibition of human recombinant CK1epsilon using alpha-casein as substrate after 30 mins in presence of [gamma-32P]-ATP by Cherenkov counting method
Casein kinase I isoform epsilon, sequence (P49674 whole entry, canonical isoform): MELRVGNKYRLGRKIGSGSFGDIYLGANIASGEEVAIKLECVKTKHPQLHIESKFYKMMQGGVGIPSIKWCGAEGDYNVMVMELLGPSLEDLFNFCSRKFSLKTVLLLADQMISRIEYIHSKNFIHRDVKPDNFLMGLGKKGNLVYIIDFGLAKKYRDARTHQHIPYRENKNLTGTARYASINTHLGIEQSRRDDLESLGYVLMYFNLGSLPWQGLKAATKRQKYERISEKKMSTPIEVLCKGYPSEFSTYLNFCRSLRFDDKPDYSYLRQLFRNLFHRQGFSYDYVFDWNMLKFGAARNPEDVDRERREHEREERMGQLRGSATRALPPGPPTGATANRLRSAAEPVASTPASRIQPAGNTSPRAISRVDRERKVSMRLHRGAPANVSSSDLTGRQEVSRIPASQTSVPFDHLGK

[12] = test system: HT-29; test: Antiproliferative activity against human HT-29 cells after 48 hrs by MTT assay; assay type: functional, cell-based; conditions: HT-29, 48 h
[13] = Antiproliferative activity against human Panc89 cells after 48 hrs by MTT assay; assay type: functional, cell-based
[14] = Selectivity ratio of IC50 for human CK1epsilon to IC50 for rat recombinant CK1delta kinase domain
[15] = test system: MIA PaCa-2; test: Antiproliferative activity against human MIAPaCa2 cells after 48 hrs by MTT assay; assay type: functional, cell-based; conditions: MIA PaCa-2, 48 h
[16] = target: Casein kinase I isoform delta (Rattus norvegicus) (UniProt Q06486); test: Inhibition of full-length rat GST-tagged CK1delta assessed as residual activity at 10 uM using alpha-casein as substrate after 30 mins in presence of [gamma-32P]-ATP by Cherenkov counting method
[17] = test system: HEK293; test: Antiproliferative activity against human HEK293 cells after 48 hrs by MTT assay; assay type: functional, cell-based; conditions: HEK293, 48 h
[18] = target: Tyrosine-protein kinase ZAP-70 (Homo sapiens) (UniProt P43403); test: Inhibition of recombinant human ZAP70 at 5 nM to 10 uM using poly (L-glutamic acid-L-tyrosine) as substrate after 30 mins in presence of [gamma-32P]-ATP by Cherenkov counting method
[19] = target: T1, Casein kinase I isoform delta; test: Inhibition of rat recombinant CK1delta kinase domain using alpha-casein as substrate after 30 mins in presence of [gamma-32P]-ATP by Cherenkov counting method
[20] = target: Casein kinase I isoform delta (Rattus norvegicus) (UniProt Q06486); test: Competitive inhibition of full-length rat GST-tagged CK1delta at IC50 using alpha-casein as substrate after 30 mins in presence of 10 to 500 uM ATP and [gamma-32P]-ATP by Cherenkov counting method
[21] = test system: PANC-1; test: Antiproliferative activity against human PANC1 cells after 48 hrs by MTT assay; assay type: functional, cell-based; conditions: PANC-1, 48 h
[22] = Antiproliferative activity against human A818-6 cells after 48 hrs by MTT assay; assay type: functional, cell-based
[23] = test system: HEK-293T; test: Upregulation of renilla luciferase expression in HEK293T cells transfected with Wnt3A-expressing vector up to 5 uM after 22 hrs by luminescence assay relative to control; assay type: cell-based; conditions: human
[24] = target: T3, Casein kinase I isoform delta (Homo sapiens, UniProt P48730); test: Inhibition of CK1delta in human PANC1 cells assessed as residual activity at 2.33 uM using GST-tagged p53 (1 to 64 residues) as substrate after 48 hrs in presence of [gamma-32P]-ATP by Cherenkov counting method; assay type: cell-based
Target sequence in this assay (P48730 whole entry, looked up, the tested form may be a part, canonical isoform): as the sequence (Q06486 whole entry, the tested form may be a part, canonical isoform) above, with V381I counted along it

[25] = test system: HEK-293T; test: Upregulation of renilla luciferase expression in HEK293T cells up to 5 uM after 22 hrs in presence of Wnt3A-conditioned medium by luminescence assay relative to control; assay type: cell-based; conditions: human
[26] = target: Casein kinase I isoform delta (Rattus norvegicus) (UniProt Q06486); test: Ratio of IC50 for full-length rat GST-tagged CK1delta to IC50 for rat recombinant CK1delta kinase domain
[27] = target: Serine/threonine-protein kinase tousled-like 2 (Homo sapiens) (UniProt Q86UE8); test: Inhibition of recombinant human N-terminal FLAG/C-terminal HIS8-tagged TLK2 assessed as residual activity at 1 uM after 60 mins in presence of [gamma-33P]-ATP by scintillation counting method
[28] = Selectivity ratio of IC50 for human CK1epsilon to IC50 for full-length rat GST-tagged CK1delta
[29] = target: T4, Protein-serine O-palmitoleoyltransferase porcupine (Homo sapiens, UniProt Q9H237); test: Inhibition of porcupine in HEK293T cells transfected with Wnt3A-expressing vector assessed as suppression of Wnt/beta-catenin signaling after 22 hrs by Super-top flash reporter gene assay; assay type: cell-based
T4 sequence (Q9H237 whole entry): T2 sequence (whole entry)

[30] = target: T3, Casein kinase I isoform delta; test: Inhibition of human recombinant CK1delta assessed as residual activity at 1 uM after 60 mins in presence of [gamma-33P]-ATP by scintillation counting method
Target sequence in this assay (P48730 whole entry, looked up, the tested form may be a part, canonical isoform): as the sequence (Q06486 whole entry, the tested form may be a part, canonical isoform) above, with V381I counted along it

[31] = target: T3, Casein kinase I isoform delta; test: Inhibition of CK1delta in HEK293T cells assessed as stimulation of Wnt/beta-catenin signaling after 22 hrs in presence of Wnt3A-conditioned medium by Super-top flash reporter gene assay; assay type: cell-based
Target sequence in this assay (P48730 whole entry, the tested form may be a part, canonical isoform): as the sequence (Q06486 whole entry, the tested form may be a part, canonical isoform) above, with V381I counted along it

[32] = target: Casein kinase I isoform gamma-3 (Homo sapiens) (UniProt Q9Y6M4); test: Inhibition of human GST-tagged CK1gamma3 at 1 uM using alpha-casein as substrate after 30 mins in presence of [gamma-32P]-ATP by Cherenkov counting method
Casein kinase I isoform gamma-3 (Homo sapiens), sequence (Q9Y6M4 whole entry, looked up, canonical isoform): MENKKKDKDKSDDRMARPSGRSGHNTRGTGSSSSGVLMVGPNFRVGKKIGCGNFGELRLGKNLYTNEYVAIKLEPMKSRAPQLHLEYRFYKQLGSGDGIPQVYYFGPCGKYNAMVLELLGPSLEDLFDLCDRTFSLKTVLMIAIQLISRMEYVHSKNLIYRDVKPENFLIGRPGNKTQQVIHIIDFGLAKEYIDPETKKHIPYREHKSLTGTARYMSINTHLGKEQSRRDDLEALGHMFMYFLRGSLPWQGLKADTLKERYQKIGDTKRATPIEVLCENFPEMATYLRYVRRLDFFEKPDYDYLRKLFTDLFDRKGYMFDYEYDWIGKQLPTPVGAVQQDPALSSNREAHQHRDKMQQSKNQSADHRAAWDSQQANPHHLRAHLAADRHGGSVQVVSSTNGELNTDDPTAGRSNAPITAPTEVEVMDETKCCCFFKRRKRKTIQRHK

[33] = target: T5, Casein kinase I isoform alpha (Bos taurus) (UniProt P67827); test: Inhibition of bovine GST-tagged CK1alpha at 1 uM using alpha-casein as substrate after 30 mins in presence of [gamma-32P]-ATP by Cherenkov counting method
T5 sequence (whole entry): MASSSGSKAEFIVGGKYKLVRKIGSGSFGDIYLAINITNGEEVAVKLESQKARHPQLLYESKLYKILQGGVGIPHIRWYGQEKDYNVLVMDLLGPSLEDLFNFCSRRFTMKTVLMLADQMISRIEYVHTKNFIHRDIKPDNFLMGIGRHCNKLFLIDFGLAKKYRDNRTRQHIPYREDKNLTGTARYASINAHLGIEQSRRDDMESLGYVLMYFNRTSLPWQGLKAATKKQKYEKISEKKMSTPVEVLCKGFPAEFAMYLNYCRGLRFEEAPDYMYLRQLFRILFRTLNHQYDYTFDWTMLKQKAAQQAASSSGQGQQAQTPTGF

[34] = target: T3, Casein kinase I isoform delta; test: Inhibition of human recombinant CK1delta at 1 uM after 60 mins in presence of [gamma-33P]-ATP by scintillation counting method
Target sequence in this assay (P48730 whole entry, looked up, the tested form may be a part, canonical isoform): as the sequence (Q06486 whole entry, the tested form may be a part, canonical isoform) above, with V381I counted along it

[35] = target: T3, Casein kinase I isoform delta; test: Inhibition of CK1delta in HEK293T cells assessed as stimulation of Wnt/beta-catenin signaling at 5 uM after 22 hrs in presence of Wnt3A-conditioned medium by Super-top flash reporter gene assay relative to control; assay type: cell-based
Target sequence in this assay (P48730 whole entry, looked up, the tested form may be a part, canonical isoform): as the sequence (Q06486 whole entry, the tested form may be a part, canonical isoform) above, with V381I counted along it

SMILES: Fc1cccc(-n2cnc3c(NCc4nc5ccc(F)c(F)c5[nH]4)nc(N4CCOCC4)nc32)c1
Activity [1]: Toxic

IC50 [2]: 0.93 µM
Activity [3]: 19%
IC50 [4]: 0.04 µM
Activity [5]: 54%
EC50 [7]: 1.9 µM
Imax [8]: 5.5%
inhibition [9]: inactive
IC50 [11]: 4.03 µM
EC50 [12]: 4.67 µM
Ratio IC50 [14]: < 17
EC50 [15]: 1.9 µM
Activity [16]: 23%
inhibition [18]: inactive
IC50 [19]: 0.32 µM
inhibition [20]: Active
EC50 [21]: 2.33 µM
fold change (FC) [23]: <= 1.3
Activity [24]: 66%
fold change (FC) [25]: <= 1.5
Ratio IC50 [26]: 4
Activity [27]: 59%
Ratio IC50 [28]: 4 to 7
IC50 [29]: 0.157 µM
Activity [30]: 55%
SMILES: Cc1ccc2nc(NC(=O)CSc3nc4c(c(=O)n3-c3ccccc3)SCC4)sc2c1
EC50 [6]: 2.05 µM
inhibition [10]: inactive
EC50 [13]: 3.86 µM
EC50 [17]: 2.76 µM
EC50 [22]: 8.96 µM

IC50 [2]: 0.41 µM
IC50 [4]: 0.09 µM
EC50 [31]: 1.47 µM
Imax [8]: 38.8%
IC50 [11]: 0.56 µM
inhibition [32]: Active
IC50 [19]: 0.09 µM
fold change (FC) [23]: <= 1.3
inhibition [33]: Active
fold change (FC) [25]: <= 1.5
inhibition [34]: Active
Emax [35]: 225%
IC50 [29]: 0.71 µM
SMILES: COc1ccc(Cn2c(SCC(=O)Nc3nc4ccc(C(F)(F)F)cc4s3)nc3c(c2=O)SCC3)cc1

— ChEMBL document CHEMBL4184315, “Discovery of Inhibitor of Wnt Production 2 (IWP-2) and Related Compounds As Selective ATP-Competitive Inhibitors of Casein Kinase 1 (CK1) δ/ε” (J Med Chem, 2018)
